Test results published in US11274084B2, “3-aryl-4-amido-bicyclic [4,5,0] hydroxamic acids as HDAC inhibitors” (Valo Health, Inc., priority 2015, dated 2022).

target: T1, HDAC6 (Homo sapiens, UniProt Q9UBN7); assay: In vitro histone deacetylase assay: enzymatic HDAC6 assay by electrophoretic mobility shift; assay type: biochemical; conditions: full length human recombinant HDAC6 1 nM, 2 μM peptide substrate RHKK(Ac)-NH2, 25° C., 12 concentrations; read-out: Inhibitory Concentration (IC50) against HDAC6, Activity Range
T1 construct: Full length human recombinant HDAC6 protein; made in house
T1 sequence (Q9UBN7 1-1215): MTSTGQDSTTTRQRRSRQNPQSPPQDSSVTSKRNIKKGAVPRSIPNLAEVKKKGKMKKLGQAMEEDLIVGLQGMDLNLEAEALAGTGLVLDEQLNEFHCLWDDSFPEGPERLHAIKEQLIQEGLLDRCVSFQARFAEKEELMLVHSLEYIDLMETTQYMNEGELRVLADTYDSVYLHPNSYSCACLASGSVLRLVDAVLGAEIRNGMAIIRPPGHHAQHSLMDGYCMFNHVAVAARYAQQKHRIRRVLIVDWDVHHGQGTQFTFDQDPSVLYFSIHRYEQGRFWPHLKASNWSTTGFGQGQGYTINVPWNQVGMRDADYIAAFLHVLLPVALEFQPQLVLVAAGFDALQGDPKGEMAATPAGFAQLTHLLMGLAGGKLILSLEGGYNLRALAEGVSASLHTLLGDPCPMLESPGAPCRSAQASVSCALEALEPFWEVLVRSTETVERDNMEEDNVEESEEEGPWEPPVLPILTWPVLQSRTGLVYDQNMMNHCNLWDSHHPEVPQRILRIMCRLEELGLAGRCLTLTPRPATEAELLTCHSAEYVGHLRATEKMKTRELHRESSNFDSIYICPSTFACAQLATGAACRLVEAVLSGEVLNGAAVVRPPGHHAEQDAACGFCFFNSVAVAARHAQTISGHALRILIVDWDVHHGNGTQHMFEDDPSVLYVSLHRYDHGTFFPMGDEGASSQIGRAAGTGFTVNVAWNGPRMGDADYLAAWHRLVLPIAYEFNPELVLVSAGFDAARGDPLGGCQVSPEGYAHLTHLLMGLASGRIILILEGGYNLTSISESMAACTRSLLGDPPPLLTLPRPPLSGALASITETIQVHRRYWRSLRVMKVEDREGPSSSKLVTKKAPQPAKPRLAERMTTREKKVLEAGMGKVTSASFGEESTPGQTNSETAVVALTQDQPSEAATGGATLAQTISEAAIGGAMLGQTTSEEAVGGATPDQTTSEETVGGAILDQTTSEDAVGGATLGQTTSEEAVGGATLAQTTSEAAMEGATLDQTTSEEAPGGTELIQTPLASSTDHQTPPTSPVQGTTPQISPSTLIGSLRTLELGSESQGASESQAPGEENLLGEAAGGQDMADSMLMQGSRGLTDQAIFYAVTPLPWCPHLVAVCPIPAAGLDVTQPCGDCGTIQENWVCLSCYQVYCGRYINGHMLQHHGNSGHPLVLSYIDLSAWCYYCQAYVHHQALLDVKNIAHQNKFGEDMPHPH
Procedure: The enzymatic HDAC6 assay was performed using electrophoretic mobility shift assay. […] The enzymatic reactions were assembled in 384-well plates in a total volume of 25 μL of a reaction buffer comprising. 100 mM HEPES, pH 7.5, 25 mM KCl, 0.1% bovine serum albumin, 0.01% Triton X-100, 1% DMSO (from compounds), 2 μM of the fluorescently labeled peptide substrate, and enzyme. The enzyme was added at a final concentration of 1 nM. The peptide substrate RHKK(Ac)-NH2 was used. The compounds were tested at 12 concentrations spaced by 3× dilution intervals. Negative control samples (0%-inhibition in the absence of inhibitor) and positive control samples (100%-inhibition) were assembled in replicates of four in each assay plate. The reactions were incubated at 25° C. and quenched by the addition of 45 μL of termination buffer (100 mM HEPES, pH 7.5, 0.01% Triton X-100, 0.05% SDS).
The terminated assay plates were analyzed on LabChip® 3000 microfluidic electrophoresis instrument (Perkin Elmer/Caliper Life Sciences). The fluorescence intensity of the electrophoretically separated de-acetylated product and substrate peptide was measured. Activity in each sample was determined as the product to sum ratio (PSR):P/(S+P), where P is the peak height of the product peptide and S is the peak height of the substrate peptide. Percent inhibition (Pinh) is determined using the following equation:
Pinh=(PSR0%−PSRinh)/(PSR0%−PSR100%)*100, where PSRinh is the product sum ratio in the presence of inhibitor, PSR0% is the average product sum ration in the absence of inhibitor, and PSR100% is the average product sum ratio in 100%-inhibition control samples. The IC50 values of inhibitors were determined by fitting the %-inhibition curves with 4 parameter dose-response models using XLfit 4 software.

`O=C(NO)c1ccc2c(c1)OC[C@@H](c1cccnc1)N(C(=O)C1CCOCC1)C2` (single isomer, unassigned) and `O=C(NO)c1ccc2c(c1)OC[C@H](c1cccnc1)N(C(=O)C1CCOCC1)C2` (single isomer, unassigned) cannot be ordered by IC50: no more than 100 nM for the first, 100 to 500 nM for the second.

First: O=C(NO)c1ccc2c(c1)OC[C@@H](c1ccccc1C(F)(F)F)N(C(=O)C1CCOCC1)C2 (single isomer, unassigned)
Second: O=C(NO)c1ccc2c(c1)OC[C@H](c1ccccc1C(F)(F)F)N(C(=O)C1CCOCC1)C2 (single isomer, unassigned)
The IC50 of the first is higher: greater than 500 nM for the first, no more than 100 nM for the second.

`O=C(NO)c1ccc2c(c1)OC[C@@H](c1cccc(C(F)(F)F)c1)N(C(=O)C1CCOCC1)C2` (single isomer, unassigned) and `O=C(NO)c1ccc2c(c1)OC[C@H](c1cccc(C(F)(F)F)c1)N(C(=O)C1CCOCC1)C2` (single isomer, unassigned) cannot be ordered by IC50: 100 to 500 nM for the first, no more than 100 nM for the second.

`O=C(NO)c1ccc2c(c1)OC[C@H](c1ccccc1)N(C(=O)[C@@H]1CCCOC1)C2` (single isomer, unassigned) and `O=C(NO)c1ccc2c(c1)OC[C@H](c1ccccc1)N(C(=O)[C@H]1CCCOC1)C2` (single isomer, unassigned) cannot be ordered by IC50: no more than 100 nM for the first, no more than 100 nM for the second.

`O=C(NO)c1ccc2c(c1)OC[C@H](c1ccccc1)N(C(=O)[C@@H]1CCOC1)C2` (single isomer, unassigned) and `O=C(NO)c1ccc2c(c1)OC[C@H](c1ccccc1)N(C(=O)[C@H]1CCOC1)C2` (single isomer, unassigned) cannot be ordered by IC50: no more than 100 nM for the first, no more than 100 nM for the second.

`O=C(NO)c1ccc2c(c1)OC[C@H](c1ccccc1)N(C(=O)C1CC3CCC(C1)O3)C2` (stereo partly drawn) [(3S)-4-(8-oxabicyclo[3.2.1]octane-3-carbonyl)-N-hydroxy-3-phenyl-2,3,4,5-tetrahydrobenzo[f][1,4]oxazepine-8-carboxamide] and `O=C(NO)c1ccc2c(c1)OC[C@H](c1ccccc1)N(C(=O)C1CCC1)C2` [(S)-4-(cyclobutanecarbonyl)-N-hydroxy-3-phenyl-2,3,4,5-tetrahydrobenzo[f][1,4]oxazepine-8-carboxamide] cannot be ordered by IC50: no more than 100 nM for the first, no more than 100 nM for the second.

`O=C(NO)c1ccc2c(c1)OC[C@H](c1ccccc1)N(C(=O)C1CCCO1)C2` (stereo partly drawn) [(3S)-N-hydroxy-3-phenyl-4-(tetrahydrofuran-2-carbonyl)-2,3,4,5-tetrahydrobenzo[f][1,4]oxazepine-8-carboxamide] and `O=C(NO)c1ccc2c(c1)OC[C@H](c1ccccc1)N(C(=O)C1CCCC1)C2` [(S)-4-(cyclopentanecarbonyl)-N-hydroxy-3-phenyl-2,3,4,5-tetrahydrobenzo[f][1,4]oxazepine-8-carboxamide] cannot be ordered by IC50: no more than 100 nM for the first, no more than 100 nM for the second.

`O=C(NO)c1ccc2c(c1)OC[C@@H](c1ccccc1F)N(C(=O)C1CCOCC1)C2` [(R)-3-(2-fluorophenyl)-N-hydroxy-4-(tetrahydro-2H-pyran-4-carbonyl)-2,3,4,5-tetrahydrobenzo[f][1,4]oxazepine-8-carboxamide] and `O=C(NO)c1ccc2c(c1)OC[C@H](c1ccccc1F)N(C(=O)C1CCOCC1)C2` [(S)-3-(2-fluorophenyl)-N-hydroxy-4-(tetrahydro-2H-pyran-4-carbonyl)-2,3,4,5-tetrahydrobenzo[f][1,4]oxazepine-8-carboxamide] cannot be ordered by IC50: 100 to 500 nM for the first, no more than 100 nM for the second.

Compared with `O=C(NO)c1ccc2c(c1)OC[C@@H](c1ccccc1)N(C(=O)C1CCOCC1)C2` [(R)-N-hydroxy-3-phenyl-4-(tetrahydro-2H-pyran-4-carbonyl)-2,3,4,5-tetrahydrobenzo[f][1,4]oxazepine-8-carboxamide], `O=C(NO)c1ccc2c(c1)OC[C@H](c1ccccc1)N(C(=O)C1CCOCC1)C2` [(S)-N-hydroxy-3-phenyl-4-(tetrahydro-2H-pyran-4-carbonyl)-2,3,4,5-tetrahydrobenzo[f][1,4]oxazepine-8-carboxamide] is lower in IC50: greater than 500 nM for the first, no more than 100 nM for the second.

`O=C(NO)c1ccc2c(c1)OC[C@H](c1cccc(Cl)c1)N(C(=O)C1CCOCC1)C2` [(S)-3-(3-chlorophenyl)-N-hydroxy-4-(tetrahydro-2H-pyran-4-carbonyl)-2,3,4,5-tetrahydrobenzo[f][1,4]oxazepine-8-carboxamide] and `O=C(NO)c1ccc2c(c1)OC[C@H](c1cccc(F)c1)N(C(=O)C1CCOCC1)C2` [(S)-3-(3-fluorophenyl)-N-hydroxy-4-(tetrahydro-2H-pyran-4-carbonyl)-2,3,4,5-tetrahydrobenzo[f][1,4]oxazepine-8-carboxamide] cannot be ordered by IC50: no more than 100 nM for the first, no more than 100 nM for the second.

`O=C(NO)c1ccc2c(c1)OC[C@H](c1ccc(Cl)cc1)N(C(=O)C1CCOCC1)C2` [(S)-3-(4-chlorophenyl)-N-hydroxy-4-(tetrahydro-2H-pyran-4-carbonyl)-2,3,4,5-tetrahydrobenzo[f][1,4]oxazepine-8-carboxamide] and `O=C(NO)c1ccc2c(c1)OC[C@H](c1ccc(F)cc1)N(C(=O)C1CCOCC1)C2` [(S)-3-(4-fluorophenyl)-N-hydroxy-4-(tetrahydro-2H-pyran-4-carbonyl)-2,3,4,5-tetrahydrobenzo[f][1,4]oxazepine-8-carboxamide] cannot be ordered by IC50: no more than 100 nM for the first, no more than 100 nM for the second.

`CC(=O)N1CCC(C(=O)N2Cc3ccc(C(=O)NO)cc3OC[C@@H]2c2ccccc2)CC1` [(S)-4-(1-acetylpiperidine-4-carbonyl)-N-hydroxy-3-phenyl-2,3,4,5-tetrahydrobenzo[f][1,4]oxazepine-8-carboxamide] and `O=C(NO)c1ccc2c(c1)OC[C@H](c1ccccc1)N(C(=O)C1CCCCC1)C2` [(S)-4-(cyclohexanecarbonyl)-N-hydroxy-3-phenyl-2,3,4,5-tetrahydrobenzo[f][1,4]oxazepine-8-carboxamide] cannot be ordered by IC50: no more than 100 nM for the first, no more than 100 nM for the second.

`O=C(NO)c1ccc2c(c1)OC[C@H](c1ccccc1)N(C(=O)c1ccc(F)cc1)C2` [(S)-4-(4-fluorobenzoyl)-N-hydroxy-3-phenyl-2,3,4,5-tetrahydrobenzo[f][1,4]oxazepine-8-carboxamide] and `O=C(NO)c1ccc2c(c1)OC[C@H](c1ccccc1)N(C(=O)c1ccccn1)C2` [(S)-N-hydroxy-3-phenyl-4-picolinoyl-2,3,4,5-tetrahydrobenzo[f][1,4]oxazepine-8-carboxamide] cannot be ordered by IC50: no more than 100 nM for the first, no more than 100 nM for the second.

`O=C(NO)c1ccc2c(c1)OC[C@H](c1ccccc1)N(C(=O)C1(F)CCOCC1)C2` [(S)-4-(4-fluorotetrahydro-2H-pyran-4-carbonyl)-N-hydroxy-3-phenyl-2,3,4,5-tetrahydrobenzo[f][1,4]oxazepine-8-carboxamide] and `COC1(C(=O)N2Cc3ccc(C(=O)NO)cc3OC[C@@H]2c2ccccc2)CCCCC1` [(S)-N-hydroxy-4-(1-methoxycyclohexane-1-carbonyl)-3-phenyl-2,3,4,5-tetrahydrobenzo[f][1,4]oxazepine-8-carboxamide] cannot be ordered by IC50: no more than 100 nM for the first, no more than 100 nM for the second.

`CC(=O)N1Cc2ccc(C(=O)NO)cc2OC[C@@H]1c1ccccc1` [(S)-4-acetyl-N-hydroxy-3-phenyl-2,3,4,5-tetrahydrobenzo[f][1,4]oxazepine-8-carboxamide] and `CC(C)(C)C(=O)N1Cc2ccc(C(=O)NO)cc2OC[C@@H]1c1ccccc1` [(S)-N-hydroxy-3-phenyl-4-pivaloyl-2,3,4,5-tetrahydrobenzo[f][1,4]oxazepine-8-carboxamide] cannot be ordered by IC50: no more than 100 nM for the first, no more than 100 nM for the second.
